Assay results reported in patent publication US20240217911A1, “A hydroxycarboxylic acid for the treatment of cancer” (UNIVERSITÄT ZÜRICH, priority 2021, published 2024).
“Also recorded” adds a separate entry of the source.

Assays:
Assay type in all cases: in vivo, mouse
MC-38 tumours = test: MC-38 subcutaneous CRC tumour model; details: for anti-tumour effect, tumour volume and weight (FIG. 15): 5-FU or both; for anti-tumour effect, tumour volume and weight (FIG. 11-13): metabolite 200 uM, 200 uL/mouse i.p. day 6, 9, 12, vs vehicle; for tumour reduction, tumor volume and weight (FIG. 17A-B): GPR84 agonist/antagonist 200 uM
Experimental: WT C57BL/6JRJ were purchased from Janvier Labs (France). All mice were kept in specific-pathogen-free conditions. Males and female littermates between 8-12 weeks were used for all the experiments. All animal experiments were performed according to Swiss animal welfare legislation and approved by the local veterinary office (Veterinaramt des Kantons Zurich). […]
For CRC injection models, MC38 cells were suspended in DMEM high glucose cell culture medium mixed 1:1 with Matrigel and 300,000 cells injected subcutaneously into the flanks, and mice euthanized […] after injection. Tumour development was measured every 3 days using a digital calliper. Tumour volume was calculated using the ellipsoid formula: 4/3*3.14*Length/2*(Width/2)^2, where the shorter dimension was used as width and depth. Mice were terminated 14 days after subcutaneous injection or when tumour volume reached 1 cm^3 or the length reached 2 cm. For the other solid tumours subcutaneous injection models, B16 melanoma cells were suspended in DMEM high glucose cell culture medium mixed 1:1 with Matrigel and 200,000 cells injected into both flanks of the animal. Lewis lung carcinoma cells LLC1.1 were suspended in DMEM high glucose cell culture medium mixed 1:1 with Matrigel and 200,000 cells injected in the right flank of a mouse. PD-1 blockade was performed in the subcutaneous tumour model by injecting of 200 μg/mouse anti-PD1(CD279) antibody (BioXCell; clone 29F.1A12) or IgG isotype control (BioXCell; clone 2a3) i.p. on days 6, 9 and 12 after subcutaneous MC-38 cells injection. 5-Fluorouracil (5-FU) was administered by i.p injections of 20 mg/kg 5-FU dissolved in DMSO at days 6, 9, and 12.
(§1) Each metabolite was dissolved in dimethyl sulfoxide (DMSO) to reach the stock concentration of 100 mM. For mice injections, stock solution of each metabolite was diluted 1:500 in saline to reach final concentration of 200 uM and 200 uL/mouse were injected intraperitoneally on day 6, day 9 and day 12-post tumour cell injection. Metabolites used: 3-Hydroxydodecanedioic acid (R and S forms) (collaborators UZH), Dodecanedioic acid (Sigma), Decanoic acid (Sigma), Unidecanoic acid (Sigma), Dodecanoic acid (Sigma), Tridecanoic acid (Sigma), Tetradecanoic acid (Angene), 3-Hydroxydecanoic acid (Sigma), 3-Hydroxydodecanoic acid (Sigma), 3-Hydroxytetradecanoic acid (Angene). GPR84 receptor blockade was performed in the subcutaneous tumour model by injecting 200 uL/mouse of 200 uM of GPR84 antagonist GLPG1205 (MCE MedChemExpress).

B16 melanoma = B16 melanoma subcutaneous tumour model; details: vs vehicle
Experimental: (§2) WT C57BL/6JRJ were purchased from Janvier Labs (France). All mice were kept in specific-pathogen-free conditions. Males and female littermates between 8-12 weeks were used for all the experiments. All animal experiments were performed according to Swiss animal welfare legislation and approved by the local veterinary office (Veterinaramt des Kantons Zurich).
(§3) Clostridiales strains Eubacterium hallii: DSM3353T, Faecalibacterium prausnitzii: DSM17677, Roseburia intestinalis: DSM14610T, Anaerostipes caccae: DSM14662T were obtained from PharmaBiome AG, Zurich (sometimes referred to as butyrate producers, 4 clostridia consortia CC4, or BP). All strains were cultivated at 37° C. in yeast extract, casitone and fatty acid (YCFA) medium (Lopez et al. 2012. Appl Environ Microbiol 78, 420-428). Strains were maintained under anoxic CO2 atmosphere using Hungate techniques. […] Viability of cells was confirmed using propidium iodide staining measured by flow cytometry. […]
(§4) For CRC injection models, MC38 cells were suspended in DMEM high glucose cell culture medium mixed 1:1 with Matrigel and 300,000 cells injected subcutaneously into the flanks, and mice euthanized […] after injection. Tumour development was measured every 3 days using a digital calliper. Tumour volume was calculated using the ellipsoid formula: 4/3*3.14*Length/2*(Width/2)^2, where the shorter dimension was used as width and depth. […]

CD8+ T cells = test: flow analysis of CD8+ T cells in MC-38 tumours; details: flow analysis in MC-38 tumor
Experimental: FIG. 17. A, MC-38 tumor volume curve (mm^3) and B, tumorweight (g) in WT mice treated with GPR84 agonist, 3-OH dodecanoic acid (3-OH Dodeca), GPR84 antagonist, GPR84 antagonist & 3-OH Dodeca or saline (Ctrl). C, Bar charts of flow analysis in tumor corresponding to the groups described in A and B. Two-way ANOVA with Dunnett's correction for multiple comparisons (A & C). Means±SEM analyzed by Kruskal-Wallis and Dunn's correction for multiple comparison (B). Experiments were performed at least twice, n=5.
as §1

LLC1.1 lung cancer = test: LLC1.1 Lewis lung carcinoma subcutaneous tumour model; details: LLC.1 lung cancer; vs vehicle
Experimental: as §2, §3, §4

Row | Structure (SMILES) | anti-tumour effect, tumour volume and weight (FIG. 15) (MC-38 tumours; 3-hydroxydodecanoic acid) | anti-tumour effect, tumour volume and weight (FIG. 14) (MC-38 tumours; 3-hydroxydodecanoic acid, anti-PD-1 or both) | anti-tumour effect, tumour volume and weight (FIG. 11-13) (MC-38 tumours) | anti-tumour effect, tumour volume and weight (FIG. 11-13) (MC-38 tumours; listed as CH3(CH2)8 CHOH—(CH2)—CO2H) | anti-tumour effect, tumour volume and weight (FIG. 16 A) (B16 melanoma) | expression of granzyme B and IFNγ by CD8+ T cells (FIG. 17C) (CD8+ T cells) | anti-tumour effect, tumour volume and weight (FIG. 16 B) (LLC1.1 lung cancer) | tumour reduction, tumor volume and weight (FIG. 17A-B) (MC-38 tumours; 200 uL/mouse i.p. day 6, 9, 12) | tumour reduction, tumor volume and weight (FIG. 17A-B) (MC-38 tumours; 200 uL/mouse i.p. day 6, 9, 12, listed as 2-(hexylthio)pyramidine-4,6-diol)
1 | CCCCCCCCCC(O)CC(=O)O (stereo not shown) [3-hydroxydodecanoic acid] | comparable anti-tumour effect | comparable anti-tumour effect | most favourable anti-tumour effect; also recorded: anti-tumour effect of the bacterial metabolites was specifically induced by 3-hydroxydodecanoic acid | inhibited tumour growth | clear anti-tumour effect | similarly increased expression of granzyme B and IFNγ by CD8+ T cells | clear anti-tumour effect |  | 
2 | O=c1nc(OC[C@@H]2COCCO2)cc2n1CCc1cc(C#CC3CC3)ccc1-2 [GPR84 antagonist, reference compound] |  |  |  |  |  | entirely lost this anti-tumour immunological change |  | completely abrogated the anti-tumour effect of 3-hydroxydodecanoic acid | 
3 | CCCCCCSc1nc(O)cc(=O)[nH]1 [ZQ-16, 2-(hexylthio)pyramidine-4,6-diol, reference compound] |  |  |  |  |  | similarly increased expression of granzyme B and IFNγ by CD8+ T cells |  | limit tumour growth in a model of cancer in vivo | inhibited tumour growth
4 | O=c1[nH]cc(F)c(=O)[nH]1 [5-FU, 5-fluorouracil, reference compound] | comparable anti-tumour effect |  |  |  |  |  |  |  | 
